Results: PMC11596630 (Molecules, 2024)
Where two headings read alike, the source gives them in different places.

Columns and labels:
[1] = Cytotoxicity MTS assay, HEK293; format: cell-based; details: 24 h exposure
Protocol: (§1) The human hepatocyte carcinoma HepG2 (ECACC 85011430), human embryo kidney HEK293 (ECACC 85120602) and human neuroblastoma SH-SY5Y (ECACC 94030304) cell lines were obtained from the certified cell-bank European Collection of Authenticated Cell Cultures (ECACC) through Sigma-Aldrich (Steinheim, Germany). HepG2 and HEK293 cells were grown in EMEM and SH-SY5Y in DMEM-F12, as described previously, and cell cultivation and maintenance were conducted according to standard protocol. All media and supplements were purchased from Sigma-Aldrich, Steinheim, Germany.
(§2) The cytotoxic profiles of tested compounds were determined by measuring the succinate dehydrogenase mitochondrial activity of exposed cells. The commercially available MTS detection reagent assay (CellTiter 96® AQueous One Solution Cell Proliferation Assay, Promega, Madison, WI, USA) was used. The procedure followed a previously described protocol. Cells were exposed to compounds in a concentration range of 0.01–1000 µM for 24 h. DMSO (20%) was used as positive control to validate the method. After desired time of incubation at 37 °C in a 5% CO2 atmosphere, cells were washed with PBS buffer and 100 µL of EMEM or DMEM medium and 20 µL of MTS were added in each well, incubated up to 1 h after which the absorbance was read at 492 nm on an Infinite M200PRO plate reader (Tecan Austria GmbH, Salzburg, Austria). Data are presented as percentages of the inhibited cells to control untreated cells, i.e., the percentage of cytotoxicity.

[2] = molecular target: T1, recombinant human AChE (Homo sapiens, UniProt P22303); assay: Inhibition of human AChE (Ellman method, Hunter–Downs Ki); format: biochemical; details: for Ki: human AChE, Ki ± SE, at least three experiments, ATCh substrate; for SI = Ki(BChE)/Ki(AChE): selectivity index, AChE over BChE
T1 construct: gift of Dr Florian Nachon, Armed Forces Biomedical Research Institute, Brétigny-sur-Orge, France
T1 sequence (P22303 32-614): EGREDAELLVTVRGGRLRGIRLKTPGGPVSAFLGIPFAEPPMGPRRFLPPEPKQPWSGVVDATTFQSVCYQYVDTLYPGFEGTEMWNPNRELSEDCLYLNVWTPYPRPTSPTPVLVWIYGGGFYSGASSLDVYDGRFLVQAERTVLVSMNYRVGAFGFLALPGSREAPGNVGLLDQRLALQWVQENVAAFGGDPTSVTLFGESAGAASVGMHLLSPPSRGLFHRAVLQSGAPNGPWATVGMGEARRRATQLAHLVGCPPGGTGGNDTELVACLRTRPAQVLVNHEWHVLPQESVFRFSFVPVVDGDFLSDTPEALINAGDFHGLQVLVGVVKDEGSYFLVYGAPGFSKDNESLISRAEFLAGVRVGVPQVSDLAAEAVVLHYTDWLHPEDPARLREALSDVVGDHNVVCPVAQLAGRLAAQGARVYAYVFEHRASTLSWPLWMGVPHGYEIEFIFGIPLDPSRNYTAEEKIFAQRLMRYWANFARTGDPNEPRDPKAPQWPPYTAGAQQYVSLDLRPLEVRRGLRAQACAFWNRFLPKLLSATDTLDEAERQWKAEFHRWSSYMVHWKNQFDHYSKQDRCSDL
Protocol: (§3) Acetylthiocholine (ATCh) and 5,5’-dithiobis(2-nitrobenzoic acid) (DTNB) were purchased from Sigma Chemical Co., St. Louis, MO, USA. ATCh was dissolved in water and DTNB in 0.1 M sodium phosphate buffer (pH 7.4). […] Purified human BChE and recombinant human AChE were kindly provided by Dr Florian Nachon (Département de Toxicologie, Armed Forces Biomedical Research Institute, Brétigny-sur-Orge, France). The enzymes were diluted in a phosphate sodium buffer 0.1 M (pH 7.4) containing 0.01% BSA.
(§4) Cholinesterase activity measurements, evaluation of Ki (dissociation constants of enzyme−inhibitor complex) and Ks constants (dissociation constants of enzyme−substrate complex) were performed following procedures described previously. Briefly, enzyme activity was measured spectrophotometrically using a slightly modified Ellman method. […] At least three concentrations of inhibitors for each substrate concentration were used in at least three experiments.
(§5) The y-intercept determines the enzyme–inhibitor dissociation constants (Ki), while the x-intercept determines the enzyme–substrate dissociation constant, KS [57].

[3] = Cytotoxicity MTS assay, SH-SY5Y; format: cell-based; details: 24 h exposure
Protocol: HepG2 and HEK293 cells were grown in EMEM and SH-SY5Y in DMEM-F12, as described previously, and cell cultivation and maintenance were conducted according to standard protocol. All media and supplements were purchased from Sigma-Aldrich, Steinheim, Germany.
as §2

[4] = Cytotoxicity MTS assay, HepG2; format: cell-based; details: 24 h exposure
Protocol: as §1, §2

[5] = molecular target: T2, purified human BChE (Homo sapiens, UniProt P06276); assay: biochemical; format: biochemical; details: for Ki: human BChE, Ki ± SE, at least three experiments, ATCh substrate
T2 construct: gift of Dr Florian Nachon, Armed Forces Biomedical Research Institute, Brétigny-sur-Orge, France
T2 sequence (P06276 29-602): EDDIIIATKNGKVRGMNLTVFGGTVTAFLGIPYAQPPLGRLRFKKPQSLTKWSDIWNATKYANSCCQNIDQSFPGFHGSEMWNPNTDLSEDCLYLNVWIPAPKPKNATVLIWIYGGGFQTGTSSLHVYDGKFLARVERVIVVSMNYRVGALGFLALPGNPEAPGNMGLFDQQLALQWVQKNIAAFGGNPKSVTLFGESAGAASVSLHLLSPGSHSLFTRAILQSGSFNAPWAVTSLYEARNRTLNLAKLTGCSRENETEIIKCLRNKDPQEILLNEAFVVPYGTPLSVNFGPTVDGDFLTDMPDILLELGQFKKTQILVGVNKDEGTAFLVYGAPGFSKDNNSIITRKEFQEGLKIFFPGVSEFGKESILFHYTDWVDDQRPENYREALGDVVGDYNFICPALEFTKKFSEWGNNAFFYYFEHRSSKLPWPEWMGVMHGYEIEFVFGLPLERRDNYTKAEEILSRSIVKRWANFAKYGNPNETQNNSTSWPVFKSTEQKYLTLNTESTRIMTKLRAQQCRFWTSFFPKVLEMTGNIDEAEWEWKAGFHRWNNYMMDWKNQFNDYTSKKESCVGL
Protocol: as §3, §4, §5

[6] = FRAP assay (ferric reducing antioxidant power); details: 10 µM compound
Protocol: The in vitro antioxidant activity of tested compounds was evaluated using the FRAP assay following a procedure described earlier. […] Trolox and butylated hydroxytoluene (BHT) were used as standard antioxidants. The absorbance was recorded at 593 nm using a microplate reader (SpectraMax iD3, Molecular Devices, San Jose, CA, USA) against a blank. All measurements were taken in three independent triplicates in at least three independent experiments. FRAP values, denominating the reduction of ferric-tripyridyltriazine (Fe^3+-TPTZ) to ferrous tripyridyltriazine (Fe^2+-TPTZ) by the tested compounds, were calculated on the basis of a standard curve obtained using […].

[7] = tested on: HepG2, HEK293 and SH-SY5Y; assay: Cytotoxicity MTS assay, over all three cell lines; format: cell-based, human; details: 24 h exposure
Protocol: as §1, §2

[8] = Cytotoxicity MTS assay, over all three cell lines; format: cell-based, human; details: human, HEK293 and SH-SY5Y cells; HepG2, HEK293, SH-SY5Y; 24 h exposure
Protocol: as §1, §2

[9] = human, SH-SY5Y cells, IC50 ± SE

Compound | IC50 at 24 h ([1]; in mM) [mM] | Ki [2] [µM] | IC50 at 24 h ([3]; IC50 ± SE) [mM] | IC50 at 24 h ([4]; in mM) [mM] | Ki ([5]; Ki BChE) [µM] | IC50 at 24 h ([1]; human, HEK293 cells, IC50 ± SE) [mM] | SI = Ki(BChE)/Ki(AChE) [2] | IC50 at 24 h [3, 9] [mM] | IC50 at 24 h ([4]; human, HepG2 cells, IC50 ± SE) [mM] | Ki ([5]; read-out: Ki BChE) [µM] | FRAP value / reducing power compared with Trolox and BHT [6] | IC50 at 24 h ([1]; human, HEK293 cells, in mM) [mM] | Toxicity to any tested cell type [7] | IC50 at 24 h ([3]; human, SH-SY5Y cells, in mM) [mM] | IC50 at 24 h ([4]; human, HepG2 cells, in mM) [mM] | IC50 at 24 h [8] [µM] | FRAP value relative to the FRAP value for BHT [6] | AChE inhibition potency, times lower compared to 2 ([2]; fold, compared to compound 2) | Selectivity to BChE ([5]; BChE over AChE)
CCN(CC)Cc1cc(Nc2ccnc3cc(Cl)ccc23)ccc1O [AMQ, Amodiaquine, reference compound] | ≥ 1 | 0.046 ± 0.001 | 0.134 ± 0.036 | ≥ 1 | 9.1 ± 0.7 | – | – | – | – | – | – | – | – | – | – | – | – | – | –
CCN(CC)Cc1cc(Nc2ccnc3cc(F)ccc23)ccc1O [Compound 1] | – | 0.17 ± 0.01 | – | – | – | 0.09 ± 0.022 | 77 | 0.09 ± 0.01 | 0.219 ± 0.028 | 13 ± 1 | not more than 50% lower than those of either Trolox or BHT | – | – | – | – | – | – | – | –
CCN(CC)Cc1cc(Nc2ccnc3cc(C(F)(F)F)ccc23)ccc1O [Compound 2] | – | 0.075 ± 0.003 | – | – | – | – | 97 | – | – | 7.3 ± 0.8 | – | ≥ 1 | not toxic to any tested cell type | ≥ 1 | ≥ 1 | – | – | – | –
CCN(CC)Cc1cc(Nc2ccnc3cc(C#N)ccc23)ccc1O [Compound 3] | – | 0.078 ± 0.004 | – | – | – | 0.103 ± 0.003 | – | 0.098 ± 0.003 | 0.471 ± 0.019 | 19 ± 1 | not more than 50% lower than those of either Trolox or BHT | – | – | – | – | ≥ 100 | – | – | –
CCN(CC)Cc1cc(Nc2ccnc3cc([N+](=O)[O-])ccc23)ccc1O [Compound 4] | – | 0.084 ± 0.003 | – | – | – | 0.033 ± 0.003 | – | 0.026 ± 0.004 | 0.039 ± 0.006 | 14 ± 1 | – | – | – | – | – | – | – | – | –
CCN(CC)Cc1cc(Nc2ccnc3cc(OC)ccc23)ccc1O [Compound 5] | – | 0.025 ± 0.001 | – | – | – | 0.037 ± 0.011 | 300 | 0.036 ± 0.005 | 0.1 ± 0.01 | 7.6 ± 0.4 | not more than 50% lower than those of either Trolox or BHT | – | – | – | – | – | higher than 50% | – | –
CCN(CC)Cc1cc(Nc2ccnc3ccccc23)ccc1O [Compound 6] | – | 0.23 ± 0.01 | – | – | – | 0.35 ± 0.04 | 26 | 0.453 ± 0.012 | – | 5.9 ± 0.8 | – | – | – | – | ≥ 1 | ≥ 100 | higher than 50% | – | –
CCN(CC)Cc1cc(Nc2ccnc3ccc(F)cc23)ccc1O [Compound 7] | – | 0.051 ± 0.002 | – | – | – | 0.159 ± 0.041 | – | 0.181 ± 0.041 | 0.529 ± 0.029 | 11 ± 1 | not more than 50% lower than those of either Trolox or BHT | – | – | – | – | ≥ 100 | – | – | –
CCN(CC)Cc1cc(Nc2ccnc3c(F)cccc23)ccc1O [Compound 8] | – | 0.51 ± 0.03 | – | – | – | 0.134 ± 0.047 | 11 | 0.085 ± 0.005 | – | 5.4 ± 0.5 | – | – | – | – | ≥ 1 | – | – | – | –
CCN(CC)Cc1cc(Nc2ccnc3ccc(C(F)(F)F)cc23)ccc1O [Compound 9] | – | 0.093 ± 0.003 | – | – | – | – | – | – | – | 14 ± 1 | – | ≥ 1 | not toxic to any tested cell type | ≥ 1 | ≥ 1 | ≥ 100 | – | – | –
CCN(CC)Cc1cc(Nc2ccnc3c(C(F)(F)F)cccc23)ccc1O [Compound 10] | – | 1.2 ± 0.1 | – | – | – | 0.087 ± 0.033 | 17 | 0.088 ± 0.008 | – | 20 ± 1 | – | – | – | – | ≥ 1 | – | – | – | –
CCN(CC)Cc1cc(Nc2cc(C(F)(F)F)nc3ccccc23)ccc1O [Compound 11] | – | 7.6 ± 0.3 | – | – | – | 0.025 ± 0.004 | 0.22 | 0.035 ± 0.005 | 0.232 ± 0.068 | 1.7 ± 0.1 | not more than 50% lower than those of either Trolox or BHT | – | – | – | – | – | – | 100 | about five times more selective to BChE
CCN(CC)Cc1cc(Nc2ccnc3ccc(C#N)cc23)ccc1O [Compound 12] | – | 0.19 ± 0.01 | – | – | – | 0.088 ± 0.031 | – | 0.092 ± 0.017 | 0.276 ± 0.046 | 21 ± 1 | – | – | – | – | – | – | – | – | –
CCN(CC)Cc1cc(Nc2ccnc3cccc(C(=O)O)c23)ccc1O [Compound 13] | – | 1.3 ± 0.1 | – | – | – | 0.103 ± 0.008 | 12 | 0.148 ± 0.017 | 0.546 ± 0.046 | 16 ± 1 | – | – | – | – | – | ≥ 100 | – | – | –
CCN(CCO)Cc1cc(Nc2ccnc3cc(Cl)ccc23)ccc1O [Compound 14] | – | 0.11 | – | – | – | – | 62 | – | – | 6.8 ± 0.3 | greater potency than both Trolox and BHT | ≥ 1 | not toxic to any tested cell type | ≥ 1 | ≥ 1 | ≥ 100 | higher than 50% | – | –
